Tested on: porcine hair follicles
Assay: Hair growth suppressing effect by organ culture method using porcine hair follicles
Type: cell-based, pig
Settings: for activity at 3e-05 % / activity at 0.003 %: 120 h, day 5 after start of culture with sample-containing medium; for activity at 3e-05 %: concentration 0.00003%; for activity at 0.003 %: concentration 0.003%; for activity at 0.01 %: concentration 0.01%
Procedure: The skin of a pork pig was cut into pieces of appropriate size, and excess fat was removed. For disinfection, the skin pieces were immersed in a Hibitane solution under sterile conditions for 10 to 20 minutes. The thus-disinfected skin pieces were washed several times with D-PBS.
Subsequently, hair follicles were isolated from the thus-treated skin pieces under a stereomicroscope by means of tweezers and a scalpel (FEATHER No. 10), and the hair follicles were placed on William's Medium E (Gibco cat. No. 12551-032) supplemented with penicillin/streptomycin (Gibco cat. No. 15140-122) solution by 10.
The isolated hair follicles were transferred to a 24-well culture plate (one follicle/well) together with the aforementioned culture medium (400 μL), and cultured in an incubator (37° C., 5% CO2) for two days.
Subsequently, compounds synthesized in Example 1 (compounds 2, 6, 7, and 9 to 13) were diluted with the aforementioned culture medium, to thereby prepare sample-containing media. Each of the thus-prepared sample-containing media was used for replacement. Similarly, N,N-dimethylglycine methyl ester (DMG) and 1,8-diaminooctane (1,8-DAO) were diluted with the aforementioned culture medium, to thereby prepare sample-containing media. Each of the thus-prepared sample-containing media was also used for replacement.
The medium for culture of hair follicles was replaced with each of the sample-containing media, and thereafter, replaced with a sample-containing medium every one or two days. At days five or six after the start of culture with the sample-containing medium, the elongation of hair follicles (i.e., elongation of hair) was measured and compared with that of the control in which medium was replaced with only the non-sample-containing medium. The elongation of hair follicles (i.e., elongation of hair) in the control medium was taken as 100%.
The sample concentration of each sample-containing medium was set within a range that the sample is completely dissolved in the medium, and at non-cytotoxic levels which cause no reduction of cell viability with 24-hour addition of the sample to epidermal cells.

[1] = Sus scrofa, read-out: Percent growth of hair follicles (control = 100%)
[2] = Sus scrofa, 144 h, day 6 after start of culture with sample-containing medium, read-out: Percent growth of hair follicles (control = 100%)

## NCCCCCCCCN [1,8-DAO, 1,8-diaminooctane, reference compound]
Sus scrofa, 144 h, day 6 after start of culture with sample-containing medium, concentration 0.03%, read-out: Percent growth of hair follicles (control = 100%)
  activity at 0.03 %: 87.9%

## CCCCCCCCCCCCNC(=O)CN(C)C [Compound 2, 2-Dimethylamino-N-Dodecyl-Acetamide]
[1]
  activity at 3e-05 %: 108%

## CCNC(=O)CN(C)C [Compound 6, 2-Dimethylamino-N-Ethyl-Acetamide]
[1]
  activity at 0.003 %: 91.6%

## CCCCCCCCCCCCNC(=O)C[N+](C)(C)C.[Cl-] [Compound 7, Dodecylcarbamoylmethyltrimethylammonium Chloride]
[1]
  activity at 3e-05 %: 42.4%
Comparison across Tables 1 and 2, compound 7 at 0.000030
  suppressive effect on growth of hair follicles (i.e., hair growth), rank among tested compounds: highest suppressive effect

## CN(C)CC(=O)NCCOCCOCCNC(=O)CN(C)C [Compound 9, 2-Dimethylamino-N-(2-{2-[2-(2-Dimethylamino-Acetylamino)-Ethoxy]-Ethoxy}-Ethyl)-Acetamide]
[2]
  activity at 0.01 %: 62.4%

## CN(C)CC(=O)NCCCCCCCCNC(=O)CN(C)C [Compound 10, 2-Dimethylamino-N-[8-(2-Dimethylamino-Acetylamino)-Octyl]-Acetamide]
[2]
  activity at 0.01 %: 54.7%

## CN(C)CC(=O)NCCOCCOCCOCCNC(=O)CN(C)C [Compound 11, 2-Dimethylamino-N-[2-(2-{2-[2-(2-Dimethylamino-Acetylamino)-Ethoxy]-Ethoxy}-Ethoxy)-Ethyl]-Acetamide]
[1]
  activity at 0.003 %: 97%

## CN(C)CC(=O)NCCCCCCCCCCCCNC(=O)CN(C)C [Compound 12, 2-Dimethylamino-N-[12-(2-Dimethylamino-Acetylamino)-Dodecyl]-Acetamide]
[1]
  activity at 0.003 %: 48.7%

## CN(C)CC(=O)NCCCCNC(=O)CN(C)C [Compound 13, 2-Dimethylamino-N-[4-(2-Dimethylamino-Acetamino)-Butyl]-Acetamide]
[1]
  activity at 0.003 %: 79.1%
